Experimental data as given in patent US11457627B2, “Plant activator” (IBIDEN CO., LTD., priority 2017, dated 2022).

How the values were obtained:
[1] = test system: resistance genes, PR1, PR2 and PDF1.2; assay: Resistance-inducing effect (expression of resistance genes overall); assay type: in vivo, Arabidopsis thaliana; conditions: used instead of the oxo fatty acid
Description: As Example 1, 0.15% potassium bicarbonate aqueous solution containing 0.012% of 13-oxo-9,11-octadecadienoic acid was prepared. (9Z,11E)-13-oxo-9,11-octadecadienoic acid (13-oxoODA, Cayman Chemical Company, INC.) was used as a 13-oxo-9,11-octadecadienoic acid. As Comparative Examples, 0.15% potassium bicarbonate aqueous solution containing 0.012% of a fatty acid analog, which is selected from 13-HPODE ((9Z,11E)-13-hydroperoxy-9,11-octadecadienoic acid, Cayman Chemical Company, INC.), 9-HPODE ((10Z,12E)-9-hydroperoxy-10,12-octadecadienoic acid, Cayman Chemical Company, INC.), 9-HPOTE ((10E,12Z,15Z)-9-hydroperoxy-10,12,15-octadecatrienoic acid, Cayman Chemical Company, INC.), 9-HOTE ((10E,12Z,15Z)-9-hydroxy-10,12,15-octadecatrienoic acid, Cayman Chemical Company, INC.), 13-HPOTE ((9Z, 11E, 15Z)-13-hydroperoxy-9,11,15-octadecatrienoic acid, Cayman Chemical Company, INC.), 13-HOTE ((9Z, 11E, 15Z)-13-hydroxy-9,11,15-octadecatrienoic acid, Cayman Chemical Company, INC.) and 12-OPDA (12-oxo-phytodienoic acid, Cayman Chemical Company, INC.), and 0.15% potassium bicarbonate aqueous solution containing 0.012% of an α-ketol fatty acid were prepared. An aqueous solution of α-ketol fatty acid was prepared according to the preparation method described below.
As Example 2, 0.15% dipotassium hydrogenphosphate aqueous solution containing 0.012% of 13-oxo-9,11-octadecadienoic acid was prepared. (9Z,11E)-13-oxo-9,11-octadecadienoic acid (13-oxoODA, Cayman Chemical Company, INC.) was used as a 13-oxo-9,11-octadecadienoic acid. […]
(§1) Each of the aqueous solutions obtained from Examples 1 and 2 was applied using the watering to treat only the roots (underground part) of Arabidopsis thaliana plants grown in the soil. The total RNA was isolated 24 hours after treatment from each Arabidopsis thaliana plant treated with each of the aqueous solutions and from the untreated Arabidopsis thaliana plant as a control, and the cDNA was synthesized from the isolated total RNA, and then the expression levels of resistance genes, PR1, PR2 and PDF1.2 were analyzed by real-time PCR. […]

PR1 gene = assay: Evaluation of the resistance gene expression (real-time PCR), PR1; assay type: in vivo, Arabidopsis thaliana; conditions: 0.012% in 0.15% potassium bicarbonate (FIG. 1) or 0.15% dipotassium hydrogenphosphate (FIG. 2) aqueous solution, watering of roots, RNA 24 hours after treatment
Description: (§2) As Example 1, 0.15% potassium bicarbonate aqueous solution containing 0.012% of 13-oxo-9,11-octadecadienoic acid was prepared. (9Z,11E)-13-oxo-9,11-octadecadienoic acid (13-oxoODA, Cayman Chemical Company, INC.) was used as a 13-oxo-9,11-octadecadienoic acid. […]
as §1

PR2 gene = assay: Evaluation of the resistance gene expression (real-time PCR), PR2; assay type: in vivo, Arabidopsis thaliana; conditions: 0.012% in 0.15% potassium bicarbonate (FIG. 1) or 0.15% dipotassium hydrogenphosphate (FIG. 2) aqueous solution, watering of roots, RNA 24 hours after treatment
Description: as §2, §1

[2] = biological target: T1, PPARα (peroxisome proliferator-activated receptor α) (Homo sapiens, UniProt Q07869); conditions: known from prior art; cited from earlier work
T1 sequence (Q07869 1-468): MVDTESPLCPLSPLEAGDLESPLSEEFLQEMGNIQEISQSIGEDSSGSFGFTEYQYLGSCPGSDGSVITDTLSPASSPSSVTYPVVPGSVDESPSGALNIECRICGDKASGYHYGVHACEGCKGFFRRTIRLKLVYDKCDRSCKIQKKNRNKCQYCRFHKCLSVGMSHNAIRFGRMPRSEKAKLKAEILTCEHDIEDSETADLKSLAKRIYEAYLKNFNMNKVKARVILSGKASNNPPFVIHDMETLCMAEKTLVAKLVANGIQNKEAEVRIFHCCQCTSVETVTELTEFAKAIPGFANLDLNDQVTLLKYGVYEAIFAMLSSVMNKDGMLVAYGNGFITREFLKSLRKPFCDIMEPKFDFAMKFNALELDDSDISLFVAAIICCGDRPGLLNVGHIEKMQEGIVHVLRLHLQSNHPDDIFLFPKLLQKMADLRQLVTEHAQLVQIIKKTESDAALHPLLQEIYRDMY

PDF1.2 gene = assay: Evaluation of the resistance gene expression (real-time PCR), PDF1.2; assay type: in vivo, Arabidopsis thaliana; conditions: 0.012% in 0.15% potassium bicarbonate (FIG. 1) or 0.15% dipotassium hydrogenphosphate (FIG. 2) aqueous solution, watering of roots, RNA 24 hours after treatment
Description: as §2, §1

Compound | resistance-inducing effect (effect on the expression of resistance-inducing traits) [1] | other results
hydroperoxy octadecatrienoic acid [HPOTE] | is not obtained | 
CC/C=C\CC(/C=C/C=C\CCCCCCCC(=O)O)OO (centres unmarked) [13-HPOTE, (9Z, 11E, 15Z)-13-hydroperoxy-9,11,15-octadecatrienoic acid] | does not provide any resistance-inducing effect | 
CCCCCC(=O)/C=C/C=C\CCCCCCCC(=O)O [13-oxoODA, (9Z,11E)-13-oxo-9,11-octadecadienoic acid] |  | expression level of resistance gene PR1 (PR1 gene): significantly higher expressions; expression level of resistance gene PR2 (PR2 gene): significantly higher expressions; agonist activity to activate transcription factor PPARα [2]: strong agonist activity
CC/C=C\C[C@@H]1C(=O)C=C[C@@H]1CCCCCCCC(=O)O [12-OPDA, 12-oxo-phytodienoic acid] |  | expression level of resistance gene PDF1.2 (PDF1.2 gene): induced the expression
hydroxy octadecatrienoic acid [HOTE] | is not obtained | 
hydroperoxyoctadecadienoic acid [HPODE] | is not obtained | 
